Test results published in ChEMBL document CHEMBL3621065, “Structure-activity relationship studies of SETD8 inhibitors” (Medchemcomm, 2014).

The compounds below were run against T1, N-lysine methyltransferase KMT5A (Homo sapiens, UniProt Q9NQR1) (assay: Inhibition of human SETD8 catalytic domain expressed in Escherichia coli assessed as reduction in transfer of tritiated methyl group from [3H]SAM to biotinylated H4 (1 to 24) peptide substrate by scintillation proximity assay).
T1 sequence (Q9NQR1 whole entry): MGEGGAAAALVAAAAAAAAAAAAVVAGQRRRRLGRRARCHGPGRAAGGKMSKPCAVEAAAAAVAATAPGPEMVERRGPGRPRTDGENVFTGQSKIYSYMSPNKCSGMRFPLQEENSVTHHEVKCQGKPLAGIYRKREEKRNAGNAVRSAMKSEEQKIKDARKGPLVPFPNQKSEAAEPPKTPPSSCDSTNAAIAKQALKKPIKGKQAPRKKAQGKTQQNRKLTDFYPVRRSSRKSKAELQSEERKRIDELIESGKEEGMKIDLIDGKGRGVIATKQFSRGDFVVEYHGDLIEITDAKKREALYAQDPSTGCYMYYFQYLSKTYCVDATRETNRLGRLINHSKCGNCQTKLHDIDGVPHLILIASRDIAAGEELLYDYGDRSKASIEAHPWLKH

IC50, > 250 µM:
COc1cc2nc(-c3ccc(F)cc3)nc(NCCCCCN3CCCC3)c2cc1OC, c1ccc2c(NCCCCCN3CCCC3)nc(N3CCCC3)nc2c1, COc1cc2nc(-c3ccccc3)nc(NCCCCCN3CCCC3)c2cc1OC, COc1cc2nc(N(C)c3ccccc3)nc(NCCCCCN3CCCC3)c2cc1OC, COc1cc2nc(N3CCCC3)nc(NCC(=O)NCCN3CCN(C)CC3)c2cc1OC, COc1cc2nc(N(C)CCCCCN3CCCC3)nc(NCCCCCN3CCCC3)c2cc1OC, COc1ccc(N(C)c2nc(NCCCCCN3CCCC3)c3cc(OC)c(OC)cc3n2)cc1, COc1cc2nc(N(C)CCCCN3CCCC3)nc(NCCCCCN3CCCC3)c2cc1OC, COc1cc2nc(N3CCCC3)nc(NCC(=O)NCCN3CCCC3)c2cc1OC, COc1ccc(Nc2nc(NCCCCCN3CCCC3)c3cc(OC)c(OC)cc3n2)cc1, COc1cc2nc(N(C)CCN3CCCC3)nc(NCCCCCN3CCCC3)c2cc1OC, COc1cc2nc(N(C)c3ccc([N+](=O)[O-])cc3)nc(NCCCCCN3CCCC3)c2cc1OC, COc1ccc(-c2nc(NCCCCCN3CCCC3)c3cc(OC)c(OC)cc3n2)cc1, COc1cc2nc(-c3ccc(C(F)(F)F)cc3)nc(NCCCCCN3CCCC3)c2cc1OC, COc1cc2nc(N3CCCC3)nc(N[C@H]3CC[C@H](N)CC3)c2cc1OC, COc1cc2nc(Nc3ccc(C(F)(F)F)cc3)nc(NCCCCCN3CCCC3)c2cc1OC, COc1cc2nc(N3CCCC3)nc(N[C@H]3CC[C@H](CN)CC3)c2cc1OC, COc1cc2nc(N3CCCC3)nc(NCC(=O)NCCN3CCNCC3)c2cc1OC, COc1cc2nc(Nc3ccc([N+](=O)[O-])cc3)nc(NCCCCCN3CCCC3)c2cc1OC, COc1cc2nc(N(C)CCCN3CCCC3)nc(NCCCCCN3CCCC3)c2cc1OC, COc1cc2nc(Nc3ccccc3)nc(NCCCCCN3CCCC3)c2cc1OC
